Key:
[1] = biological target: T1, HCV NS3 protease (full-length NS3/NS4A-2 complex) (Hepatitis C virus genotype 1a, UniProt P27958); assay: NS3 Inhibition Assay (NS3-NS4 protease assay, RETS1 substrate); assay type: biochemical; conditions: NS3/NS4A-2, RETS1 substrate, 10 minutes pre-incubation
T1 construct: Recombinant E. coli or Baculovirus full-length NS3 was diluted to 3.33 μM with assay buffer; host or cells: E. coli or baculovirus (insect cells)
Experimental: NS3 Complex Formation with NS4A-2.
Recombinant E. coli or Baculovirus full-length NS3 was diluted to 3.33 μM with assay buffer and the material was transferred to an eppendorf tube and placed in a water bath in a 4° C. refrigerator. The appropriate amount of NS4A-2 diluted to 8.3 mM in assay buffer was added to an equal the volume of NS3 above (conversion factor—3.8 mg/272 μL assay buffer). The material was transferred to an eppendorf tube and placed in water bath in a 4° C. refrigerator.
After equilibration to 4° C., equal volumes of NS3 and NS4A-2 solutions were combined in an eppendorf tube, mixed gently with a manual pipettor, and incubated for 15 minutes in the 4° C. water bath. Final concentrations in the mixture are 1.67 μM NS3, 4.15 mM NS4A-2 (2485-fold molar excess NS4A-2).
After 15 minutes at 4° C., the NS3/NS4A-2 eppendorf tube was removed and placed in a room temperature water bath for 10 minutes. NS3/NS4A-2 was aliquoted at appropriate volumes and stored at −80° C. (E. coli NS3 run at 2 nM in assay, aliquot at 25 μL. BV NS3 run at 3 nM in assay, aliquot at 30 μL).
Step a. Sample compounds were dissolved to 10 mM in DMSO then diluted to 2.5 mM (1:4) in DMSO. Typically, compounds were added to an assay plate at 2.5 mM concentration, yielding upon dilution a starting concentration of 50 μM in the assay inhibition curve. Compounds were serial diluted in assay buffer to provide test solutions at lower concentrations.
Step 1. The E. coli. NS3/NS4A-2 was diluted to 4 nM NS3 (1:417.5 of 1.67 μM stock−18 μL 1.67 μM stock+7497 μL assay buffer). The BV NS3/NS4A-2 was diluted to 6 nM NS3 (1:278.3 of 1.67 μM stock−24 μL 1.67 μM stock+6655 μL assay buffer).
Step. 2. Using the manual multichannel pipettor, and being careful not to introduce bubbles into the plate, 50 μL assay buffer was added to wells A01-H01 of a black Costar 96-well polypropylene storage plate.
Step 3. Using the manual multichannel pipettor, and being careful not to introduce bubbles into the plate, 50 μL of diluted NS3/NS4A-2 from step 1 was added to wells A02-H12 of the plate in step 2.
Step 4. Using the manual multichannel pipettor, and being careful not to introduce bubbles into the plate, 25 μL of the wells in drug dilution plate in step a was transferred to corresponding wells in assay plate in step 3. The tips on the multichannel pipettor were changed for each row of compounds transferred.
Step 5. Using the manual multichannel pipettor, and being careful not to introduce bubbles into the plate, the contents of the wells from the assay plate in step 4 were mixed by aspirating and dispensing 35 μL of the 75 μL in each well five times. The tips on multichannel pipettor were changed for each row of wells mixed.
Step 6. The plate was covered with a polystyrene plate lid, and the plate from step 5 containing NS3 protease and sample compounds was pre-incubated 10 minutes at room temperature.
While the plate from step 6 is pre-incubating, the RETS1 substrate was diluted in a 15 mL polypropylene centrifuge tube. The RETS1 substrate was diluted to 8 μM (1:80.75 of 646 μM stock−65 μL 646 μM stock+5184 μL assay buffer).
After the plate in step 6 finished pre-incubating, and using the manual multichannel, 25 μL of substrate was added to all wells on the plate. The contents of the wells of the plate were quickly mixed, as in step 5, mixing 65 μL of the 100 μL in the wells.
The plate was read in kinetic mode on the Molecular Devices SpectraMax Gemini XS plate reader. Reader settings: Read time: 30 minutes, Interval: 36 seconds, Reads: 51, Excitation λ: 335 nm, Emission λ: 495 nm, cutoff: 475 nm, Automix: off, Calibrate: once, PMT: high, Reads/well: 6, Vmax pts: 21 or 28/51 depending on length of linearity of reaction
IC50s are determined using a four parameter curve fit equation, and converted to Ki's using the following Km's: • Full-length E. coli NS3-2.03 μM • Full-length BV NS3-1.74 μM • where Ki=IC50/(1+[S]/Km))

[2] = system: HCV sub-genomic replicon (I377/NS3-3′) in HuH-7 hepatoma cells (GS4.3); assay: Quantitation by ELISA of NPTII in the HCV sub-genomic replicon, GS4.3; assay type: cell-based; conditions: Hepatitis C virus, GS4.3 replicon cells, 72 h incubation
Experimental: The HCV sub-genomic replicon (I377/NS3-3′, accession No. AJ242652), stably maintained in HuH-7 hepatoma cells, was created by Lohmann et al. Science 285: 110-113 (1999). The replicon-containing cell culture, designated GS4.3, was obtained from Dr. Christoph Seeger of the Institute for Cancer Research, Fox Chase Cancer Center, Philadelphia, Pa.
GS4.3 cells were maintained at 37° C., 5% CO2, in DMEM (Gibco 11965-092) supplemented with L-glutamine 200 mM (100×) (Gibco25030-081), non-essential amino acids (NEAA)(Biowhittaker 13-114E), heat-inactivated (HI) Fetal Bovine Serum(FBS)(Hyclone SH3007.03) and […] geneticin (G418)(Gibco 10131-035). Cells were sub-divided 1:3 or 4 every 2-3 days.
24 h prior to the assay, GS4.3 cells were collected, counted, and plated in 96-well plates (Costar 3585) at 7500 cells/well in 100 μL standard maintenance medium (above) and incubated in the conditions above. To initiate the assay, culture medium was removed, cells were washed once with PBS (Gibco 10010-023) and 90 μl Assay Medium (DMEM, L-glutamine, NEAA, 10% HI FBS, no G418) was added. Inhibitors were made as a 10× stock in Assay Medium, (3-fold dilutions from 10 μM to […] final concentration, final DMSO concentration 1%), 10 μL were added to duplicate wells, plates were rocked to mix, and incubated as above for 72 h.
An NPTII Elisa kit was obtained from AGDIA, Inc. (Compound direct ELISA test system for Neomycin Phosphotransferase II, PSP 73000/4800). Manufacturer's instructions were followed, with some modifications. 10×PEB-1 lysis buffer was made up to include 500 μM PMSF (Sigma P7626, 50 mM stock in isopropanol). After 72 h incubation, cells were washed once with PBS and 150 μL PEB-1 with PMSF was added per well. Plates were agitated vigorously for 15 minutes, room temperature, and then frozen at −70° C. Plates were thawed, lysates were mixed thoroughly, and 100 μL were applied to an NPTII Elisa plate. A standard curve was made. Lysate from DMSO-treated control cells was pooled, serially diluted with PEB-1 with PMSF, and applied to duplicate wells of the ELISA plate, in a range of initial lysate amount of 150 μL. In addition, 100 μL buffer alone was applied in duplicate as a blank. Plates were sealed and gently agitated at room temperature for 2 h. Following capture incubation, the plates were washed 5×300 μL with PBS-T (0.5% Tween-20, PBS-T was supplied in the ELISA kit). For detection, a 1× dilution of enzyme conjugate diluent MRS-2 (5×) was made in PBS-T, into which 1:100 dilutions of enzyme conjugates A and B were added, as per instructions. Plates were resealed, and incubated with agitation, covered, room temperature, for 2 h. The washing was then repeated and 100 μL of room temperature TMB substrate was added. After approximately 30 minutes incubation (room temperature, agitation, covered), the reaction was stopped with 50 μL 3M sulfuric acid. Plates were read at 450 nm on a Molecular Devices Versamax plate reader.
Inhibitor effect was expressed as a percentage of DMSO-treated control signal, and inhibition curves were calculated using a 4-parameter equation: y=A+4B−A)/(1+((C/x)̂D))), where C is half-maximal activity or EC50.

T1 sequence (P27958 1027-1657, one chain of several): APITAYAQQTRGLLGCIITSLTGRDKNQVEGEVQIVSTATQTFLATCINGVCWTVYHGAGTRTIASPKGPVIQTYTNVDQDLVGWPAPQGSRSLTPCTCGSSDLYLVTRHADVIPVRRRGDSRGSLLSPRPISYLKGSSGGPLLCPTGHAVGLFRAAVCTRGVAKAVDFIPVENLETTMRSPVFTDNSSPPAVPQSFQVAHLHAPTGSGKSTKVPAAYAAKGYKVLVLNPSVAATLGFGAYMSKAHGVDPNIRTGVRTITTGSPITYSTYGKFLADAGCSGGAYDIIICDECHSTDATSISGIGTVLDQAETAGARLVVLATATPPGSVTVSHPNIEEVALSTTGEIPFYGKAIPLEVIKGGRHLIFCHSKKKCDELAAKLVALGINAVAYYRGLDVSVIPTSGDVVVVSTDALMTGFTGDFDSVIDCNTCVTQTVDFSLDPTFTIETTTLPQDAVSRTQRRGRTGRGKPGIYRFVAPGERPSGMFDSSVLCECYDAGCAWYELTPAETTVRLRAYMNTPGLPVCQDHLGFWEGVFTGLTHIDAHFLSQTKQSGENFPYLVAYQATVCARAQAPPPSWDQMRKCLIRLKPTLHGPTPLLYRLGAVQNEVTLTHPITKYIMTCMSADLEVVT

Row | SMILES | IC50 [1] | EC50 [2]
1 | CC[C@@H]1C[C@@]12NC(=O)[C@@H]1C[C@H](CN1C(=O)[C@@H](NC(=O)OC(C)(C)C)C(C)(C)C)Oc1nc3c(cccc3n1C(C)C)CCCC/C=C/CCCC1(CC1)S(=O)(=O)NC2=O [Compound 111] | 10 to 100 nM | ≥ 100 nM
2 | CC[C@@H]1C[C@@]12NC(=O)[C@@H]1C[C@H](CN1C(=O)[C@@H](NC(=O)OC(C)(C)C)C(C)(C)C)Oc1nc3c(cccc3n1C(C)C)CCCCCCCCCC1(CC1)S(=O)(=O)NC2=O [Compound 112] | ≤ 10 nM | ≥ 100 nM
3 | CC[C@@H]1C[C@@]12NC(=O)[C@@H]1C[C@H](CN1C(=O)[C@@H](N)C(C)(C)C)Oc1nc3c(cccc3n1C(C)C)CCCCCCCCCC1(CC1)S(=O)(=O)NC2=O [Compound 113] | 10 to 100 nM | ≥ 100 nM

Source: patent US20120094897A1, “NOVEL INHIBITORS OF HEPATITIS C VIRUS REPLICATION” (InterMune, Inc., priority 2010, published 2012)
